Three molecules from US5576319A, “Pyrrolo-pyridine derivatives” (Merck, Sharp & Dohme Ltd., priority 1994, dated 1996) can be followed below.

As usually defined, the Ki is the dissociation constant of the complex between target and ligand, obtained from inhibition or displacement.

Read-outs that look alike come from different tables or passages of the source.

In series [1] the target is T1, human dopamine D4 receptor subtype (Homo sapiens, UniProt P21917).
T1 sequence (P21917 1-419): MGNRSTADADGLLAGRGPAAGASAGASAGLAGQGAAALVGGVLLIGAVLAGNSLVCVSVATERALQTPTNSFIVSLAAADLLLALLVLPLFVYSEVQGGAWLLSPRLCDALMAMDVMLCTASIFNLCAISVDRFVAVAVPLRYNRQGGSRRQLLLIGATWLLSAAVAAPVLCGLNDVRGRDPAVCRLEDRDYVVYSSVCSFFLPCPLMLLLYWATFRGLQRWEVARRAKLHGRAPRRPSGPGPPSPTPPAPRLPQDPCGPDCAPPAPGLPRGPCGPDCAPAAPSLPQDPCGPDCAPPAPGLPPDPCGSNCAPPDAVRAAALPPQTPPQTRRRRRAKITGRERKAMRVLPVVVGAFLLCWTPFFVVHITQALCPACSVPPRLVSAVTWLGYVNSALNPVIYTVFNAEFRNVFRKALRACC
Kind of series: [3H]-Spiperone binding, displacement from human dopamine D4 receptor subtype expressed in clonal cell lines.

Series [2] concerns the target T2, human dopamine D2 receptor subtype (Homo sapiens, UniProt P14416).
T2 construct: expressed in transfected cells
Kind of series: [3H]-Spiperone binding, displacement from human dopamine D2 receptor subtype expressed in clonal cell lines.

Series [3] relates to rats. The series is described as follows: Sedation: spontaneous motor activity of rats in novel cages with photocells (number of cage crossings). The format is in vivo. Particulars: rat. From the text: Representative compounds according to the invention have been tested for their effects on spontaneous motor activity occasioned by placing rats in novel cages equipped with photocells in order to determine the number of cage crossings. This is an art-recognised model of the sedation potential of a given test compound.

The subject of series [4] is rat. The series is described as follows: Extrapyramidal disorders: apomorphine-induced stereotypy in the rat. The format is in vivo. From the text:
2. Extrapyramidal Disorders
Representative compounds according to the invention have been tested for their effect on apomorphine-induced stereotypy in the rat. This is an art-recognised model of the potential to induce extrapyramidal side-effects.

T2 sequence (P14416 whole entry): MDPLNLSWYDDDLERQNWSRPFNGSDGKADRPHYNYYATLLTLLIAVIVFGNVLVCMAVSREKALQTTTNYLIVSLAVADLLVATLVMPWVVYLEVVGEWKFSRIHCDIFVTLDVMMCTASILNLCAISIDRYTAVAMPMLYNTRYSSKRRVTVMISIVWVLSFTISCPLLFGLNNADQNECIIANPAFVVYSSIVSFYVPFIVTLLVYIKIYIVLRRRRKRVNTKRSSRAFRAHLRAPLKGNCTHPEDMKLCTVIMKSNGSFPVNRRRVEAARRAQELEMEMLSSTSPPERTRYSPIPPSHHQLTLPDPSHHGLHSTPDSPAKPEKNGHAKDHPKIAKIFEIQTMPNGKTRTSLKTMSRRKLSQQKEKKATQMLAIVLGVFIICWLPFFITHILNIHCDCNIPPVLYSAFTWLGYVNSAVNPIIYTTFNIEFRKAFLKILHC

On to `COc1ccc(N2CCN(Cc3c[nH]c4ncccc34)CC2)cc1` [Example 2, 3-(4-[4-Methoxyphenyl]piperazin-1-yl)methyl-1H-pyrrolo[2,3-b]pyridine], for which the Ki in series [1] (human D4, clonal cell line membranes, 0.2 nM [3H]-spiperone) was 1.3 nM; in series [2] (human D2, clonal cell line membranes, 0.2 nM [3H]-spiperone, read-out: Ki value for the D2 subtype) it was more than 1500 nM. The “D4 :D2 ratio” value in series [1] (ratio of Ki values, selectivity for D4 over D2, 60 min) is listed as “greater than 1150”.
Turning to `O=C(CCCN1CCC(O)(c2ccc(Cl)cc2)CC1)c1ccc(F)cc1` [haloperidol, reference compound], the “sedation (spontaneous motor activity)” value in series [3] (dose of 1 mg/kg) is reported as “marked sedation”. For the same molecule, the “potential to elicit extrapyramidal side-effects (apomorphine-induced stereotypy)” value in series [4] (doses of 0.5 and 1.0 mg/kg) is reported as “significant potential to elicit extrapyramidal side-effects”.
With `Clc1ccc(N2CCN(Cc3c[nH]c4ncccc34)CC2)cc1` [Example 5, 3-(4-[4-Chlorophenyl]piperazin-1-yl)methyl-1H-pyrrolo[2,3-b]pyridine], in series [3] (doses of up to 10-30 mg/kg), the “sedation (spontaneous motor activity)” value was “no evidence for sedation”. The “potential to induce extrapyramidal side-effects (apomorphine-induced stereotypy)” value in series [4] (doses up to 1.0 mg/kg) was “no potential to induce the extrapyramidal side-effects”. The molecule also came in with an inhibition constant Ki in series [2] of 860 nM.
